Laboratory results: ChEMBL document CHEMBL1201862, “PubChem BioAssay data set” (2004)
Activity calls are given as the source filed them.

Columns and labels:
[1] = Fluorescence polarization-based biochemical high throughput dose response assay for activators of the Protein Kinase A-R1A (PKA-R1A) complex. [Related pubchem assays (depositor defined):AID504704, AID504707, AID504799, AID504800]
[2] = Fluorescence polarization-based biochemical high throughput dose response assay for activators of the Protein Kinase A-R2B (PKA-R2B) complex. [Related pubchem assays (depositor defined):AID504700, AID504704, AID504796, AID504797]
[3] = alpha-synuclein stem-loop luciferase translation blockers – H4 neuroglioma cells, luminescence, confirmation (AID 1988); type: functional, cell-based
[4] = target: T1, Heat shock factor protein 1 (Mus musculus, UniProt P38532); assay: decrease of HSF1-responsive luciferase luminescence – cell-based, NIH3T3, dose retest, confirmation (AID 2382); type: functional;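 also: NIH3T3 fibroblasts with HSF1-driven luciferase reporter stressed by proteasome inhibitor MG132; luminescence from HSF1-driven luciferase expression after 8 hours of MG132 stress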
T1 sequence (P38532 whole entry): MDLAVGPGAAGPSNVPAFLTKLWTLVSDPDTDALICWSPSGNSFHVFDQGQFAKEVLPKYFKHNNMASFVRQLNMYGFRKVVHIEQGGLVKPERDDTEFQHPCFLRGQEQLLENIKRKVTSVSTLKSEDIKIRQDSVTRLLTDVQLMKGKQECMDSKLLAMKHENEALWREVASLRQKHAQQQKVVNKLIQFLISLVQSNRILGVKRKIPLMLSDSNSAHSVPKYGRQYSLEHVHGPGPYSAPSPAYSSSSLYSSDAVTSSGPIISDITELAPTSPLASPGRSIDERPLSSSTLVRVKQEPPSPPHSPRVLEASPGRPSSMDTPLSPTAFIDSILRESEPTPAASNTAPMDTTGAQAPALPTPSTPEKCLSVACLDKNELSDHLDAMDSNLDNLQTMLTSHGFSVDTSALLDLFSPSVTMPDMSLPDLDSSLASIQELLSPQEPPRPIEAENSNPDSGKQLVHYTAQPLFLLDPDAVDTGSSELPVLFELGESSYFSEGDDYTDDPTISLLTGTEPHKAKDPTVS

[5] = non-specific 3'UTR reporter inhibition in Clone20-Shn3RL – cell-based, Renilla luciferase, cherry-picked, counter-screen for Shn3 inhibitor project, dose response (AID 624133); type: functional
[6] = loss of viability in HepG2 cells – cell-based, CellTiter-Glo, cherry-picked, cytotoxicity control for Shn3 inhibitor project, dose response (AID 624134); type: functional
[7] = target: Luciferin 4-monooxygenase (Photuris pensylvanica, UniProt Q27757); assay: inhibition of Cell Titer Glo luciferase signal – biochemical, luminescence, cherry-picks, counter-screen for HSF-1 reporter inhibitor project, dose response (AID 588847)
[8] = reduction of Shn3 3'UTR-driven luciferase in osteoblasts – cell-based, Clone20 osteoblasts, firefly luciferase, cherry-picked, dose response (AID 624132); type: functional;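 also: firefly luciferase luminescence from reporter carrying the Shn3 3'UTR in osteoblasts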
[9] = alpha-synuclein stem-loop translation blockers – luminescence, H4 neuroglioblastoma cells, dose confirmation, confirmation (AID 2454); type: functional, cell-based;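 also: H4 neuroglioblastoma cells carrying an alpha-synuclein 5'UTR luciferase reporter; potency for inhibition of the luciferase signal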
cells = type: functional, cell-based
[10] = Luminescence Cell-Based Dose Response HTS to Identify Inhibitors of 5'UTR Stem-Loop Driven Prion Protein mRNA Translation in H4 Neuroglioblastoma Cells. [Related pubchem assays: 1827 (Project Summary), 1813 (Primary HTS)]; type: functional
[11] = luciferase reporter signal reduction – luminescence, H4-C neuroglioblastoma cells, dose response (AID 2458); type: functional, cell-based;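 also: H4 neuroglioblastoma cells stably carrying a luciferase reporter gene fusion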
[12] = luciferase reporter signal suppression in cells – H4 neuroglioma cells, luminescence, dose response (AID 1990); type: functional, cell-based
Beta-galactosidase = Beta-galactosidase (Escherichia coli, UniProt Q8VNN2); assay: PubChem AID 485352; type: functional
DNA topoisomerase = DNA topoisomerase (Yersinia pestis, UniProt A0A2S9PM60); assay: Yersinia topoisomerase I cleavage product accumulation – biochemical, cherry-pick, dose response (AID 588525)
[13] = target: T2, Type-1 angiotensin II receptor (Homo sapiens, UniProt P30556); assay: antagonism of angiotensin II type 1 receptor – cell-based, uHTS hits, selectivity assay for APJ receptor antagonist project, dose response (AID 463214); type: functional;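 also: antagonist potency against angiotensin II stimulated AT1 response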
T2 sequence (P30556 whole entry): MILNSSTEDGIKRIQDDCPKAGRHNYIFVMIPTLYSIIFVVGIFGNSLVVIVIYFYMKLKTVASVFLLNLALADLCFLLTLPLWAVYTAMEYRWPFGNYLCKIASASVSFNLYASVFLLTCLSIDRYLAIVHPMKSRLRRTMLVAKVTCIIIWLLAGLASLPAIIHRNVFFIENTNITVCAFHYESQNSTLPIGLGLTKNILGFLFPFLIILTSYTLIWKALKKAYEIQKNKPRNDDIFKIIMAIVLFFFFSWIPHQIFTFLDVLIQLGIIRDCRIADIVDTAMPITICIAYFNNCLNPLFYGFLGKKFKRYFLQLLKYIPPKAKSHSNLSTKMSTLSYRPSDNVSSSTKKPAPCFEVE

[14] = system: Streptococcus sp. 'group A'; assay: Streptococcus pyogenes SK(-)GAS viability under kanamycin – luminescence, BacTiterGlo, confirmation, counter-screen for streptokinase expression inhibitor project, dose response (AID 1900); type: functional, organism-based
Streptococcus = assay: GAS UMAA2166 growth inhibition – luminescence, BacTiterGlo, counter-screen for streptokinase expression inhibitor project, dose response (AID 1915); type: functional, organism-based;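 also: potency for reduction of bacterial viability or growth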
Beta-arrestin-1 = Beta-arrestin-1 (Homo sapiens, UniProt P49407); assay: beta-arrestin/AP2 interaction blockers, potency – biochemical, cherry pick 1, beta2-adaptin appendage, flow cytometry, dose response (AID 588783); type: functional
Streptokinase A = target: T3, Streptokinase A (Streptococcus pyogenes serotype M1, UniProt P10520); assay: viability-normalized secreted streptokinase activity reduction – plasminogen activation absorbance, OD405, dose response (AID 1914); type: functional, Streptococcus pyogenes M1 GAS;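 also: secreted streptokinase activity via plasminogen activation per viability signal from cell pellet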
T3 sequence (P10520 whole entry): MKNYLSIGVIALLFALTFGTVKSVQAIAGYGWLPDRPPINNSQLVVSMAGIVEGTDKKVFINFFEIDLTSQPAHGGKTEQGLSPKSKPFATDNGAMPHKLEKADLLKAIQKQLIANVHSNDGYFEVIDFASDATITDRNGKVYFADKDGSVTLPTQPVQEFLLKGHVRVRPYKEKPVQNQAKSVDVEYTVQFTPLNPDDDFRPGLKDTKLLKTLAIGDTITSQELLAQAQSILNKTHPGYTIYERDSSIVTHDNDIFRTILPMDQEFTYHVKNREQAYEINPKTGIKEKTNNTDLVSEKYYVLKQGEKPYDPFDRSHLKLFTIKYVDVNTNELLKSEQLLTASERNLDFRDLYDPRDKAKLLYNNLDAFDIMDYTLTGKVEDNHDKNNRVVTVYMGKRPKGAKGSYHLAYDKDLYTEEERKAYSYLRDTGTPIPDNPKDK

[15] = target: Glycogen synthase kinase-3 alpha (Homo sapiens, UniProt P49840); assay: Inhibition of Human GSK-3 alpha Activity Measured in Biochemical System Using Microfluidics - 2063-06_Inhibitor_Dose_DryPowder_Activity. [Related pubchem assays (depositor defined):AID2709]
[16] = target: Glycogen synthase kinase-3 beta (Homo sapiens, UniProt P49841); assay: Inhibition of Human GSK-3 beta Activity Measured in Biochemical System Using Microfluidics - 2063-05_Inhibitor_Dose_DryPowder_Activity. [Related pubchem assays (depositor defined):AID2709]
[17] = blockers of bursicon-stimulated LGR2 cAMP reporter – cell-based, HEK293, CRE-luciferase reporter, cherry pick, set 2, dose response (AID 743343); type: functional;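 also: transfected cells were stimulated with diluted bursicon conditioned medium after compound addition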
[18] = target: T4, Nuclear receptor subfamily 0 group B member 1 (Homo sapiens, UniProt P51843); assay: Luminescence-based cell-based high throughput dose response assay for inhibitors of the orphan nuclear receptor subfamily 0, group B, member 1 (DAX1; NR0B1). [Related pubchem assays (depositor defined):AID504766, AID504790]; type: functional
T4 sequence (P51843 whole entry): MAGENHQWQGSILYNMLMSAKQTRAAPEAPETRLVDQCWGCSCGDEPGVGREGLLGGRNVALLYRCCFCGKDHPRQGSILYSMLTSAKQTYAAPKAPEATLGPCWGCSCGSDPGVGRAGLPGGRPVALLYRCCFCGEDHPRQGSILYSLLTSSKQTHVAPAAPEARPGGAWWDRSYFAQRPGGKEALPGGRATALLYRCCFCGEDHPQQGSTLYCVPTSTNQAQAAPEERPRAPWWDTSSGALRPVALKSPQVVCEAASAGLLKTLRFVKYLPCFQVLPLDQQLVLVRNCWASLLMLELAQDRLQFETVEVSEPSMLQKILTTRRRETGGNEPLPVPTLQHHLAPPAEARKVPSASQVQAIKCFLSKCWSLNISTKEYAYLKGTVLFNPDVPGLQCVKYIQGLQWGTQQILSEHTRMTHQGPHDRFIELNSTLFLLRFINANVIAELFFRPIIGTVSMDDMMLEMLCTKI

[19] = blockade of melanocortin 4 receptor signaling – cell-based, plate reader, cherry pick, counter-screen for LGR2 antagonist project, dose response (AID 743444); type: functional;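 also: transfected HEK 293 cells stimulated with alpha-MSH peptide; potency of inhibitors of the alpha-MSH evoked signal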
[20] = toxicity toward HepG2 liver cells – cell-based, plate reader, cherry-pick, antagonist series, cytotoxicity control, dose response (AID 743416); type: functional
HEK293 = assay: cells; type: functional, cell-based; conditions: Homo sapiens
[21] = target: Beta-2 adrenergic receptor (Homo sapiens, UniProt P07550); assay: ADRB2 activation measured by internalization – cell-based, FAP fluorogen, flow cytometry, cherry pick 1, dose response (AID 588763); type: functional
[22] = target: Voltage-gated inwardly rectifying potassium channel KCNH2 (Homo sapiens, UniProt Q12809); conditions: Potency;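 also: confirmatory quantitative high-throughput screen measuring inhibition of hERG channel activity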
[23] = target: Beta-adrenergic receptor kinase 1 (Homo sapiens, UniProt P25098); assay: aptamer displacement from bead-bound GRK2 – biochemical, cherry pick 1, bead flow cytometry, dose response (AID 504500)

Sequence of Voltage-gated inwardly rectifying potassium channel KCNH2 (Q12809 whole entry): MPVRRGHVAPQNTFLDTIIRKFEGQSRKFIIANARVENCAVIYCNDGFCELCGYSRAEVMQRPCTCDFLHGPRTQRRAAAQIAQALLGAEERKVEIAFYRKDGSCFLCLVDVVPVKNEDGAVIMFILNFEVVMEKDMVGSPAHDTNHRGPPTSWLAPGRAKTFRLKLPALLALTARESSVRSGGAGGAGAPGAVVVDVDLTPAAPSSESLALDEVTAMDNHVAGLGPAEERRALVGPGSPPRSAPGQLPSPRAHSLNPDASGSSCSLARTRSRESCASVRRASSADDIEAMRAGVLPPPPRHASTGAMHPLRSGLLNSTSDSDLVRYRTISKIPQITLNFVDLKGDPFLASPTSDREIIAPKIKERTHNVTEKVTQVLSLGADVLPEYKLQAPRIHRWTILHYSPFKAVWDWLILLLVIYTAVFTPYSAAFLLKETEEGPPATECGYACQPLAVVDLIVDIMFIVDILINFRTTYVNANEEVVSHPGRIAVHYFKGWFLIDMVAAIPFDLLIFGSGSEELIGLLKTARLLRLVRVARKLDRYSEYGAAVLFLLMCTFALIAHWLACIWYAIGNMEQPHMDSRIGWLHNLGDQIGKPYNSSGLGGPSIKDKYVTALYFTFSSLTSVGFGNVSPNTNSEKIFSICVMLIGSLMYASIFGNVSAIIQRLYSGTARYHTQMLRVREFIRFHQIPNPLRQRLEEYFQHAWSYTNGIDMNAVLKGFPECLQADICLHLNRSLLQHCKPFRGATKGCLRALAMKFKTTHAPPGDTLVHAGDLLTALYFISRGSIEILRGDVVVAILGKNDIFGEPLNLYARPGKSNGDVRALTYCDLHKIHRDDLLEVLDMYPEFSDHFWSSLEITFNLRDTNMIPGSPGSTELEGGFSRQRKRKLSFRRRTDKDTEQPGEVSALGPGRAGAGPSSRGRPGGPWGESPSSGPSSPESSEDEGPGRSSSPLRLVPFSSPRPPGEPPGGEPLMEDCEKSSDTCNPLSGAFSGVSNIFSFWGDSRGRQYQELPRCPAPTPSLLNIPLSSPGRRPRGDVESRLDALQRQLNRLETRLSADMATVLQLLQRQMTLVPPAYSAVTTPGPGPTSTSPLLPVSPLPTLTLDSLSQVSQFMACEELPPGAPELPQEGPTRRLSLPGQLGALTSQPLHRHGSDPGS
Sequence of Luciferin 4-monooxygenase (Q27757 whole entry): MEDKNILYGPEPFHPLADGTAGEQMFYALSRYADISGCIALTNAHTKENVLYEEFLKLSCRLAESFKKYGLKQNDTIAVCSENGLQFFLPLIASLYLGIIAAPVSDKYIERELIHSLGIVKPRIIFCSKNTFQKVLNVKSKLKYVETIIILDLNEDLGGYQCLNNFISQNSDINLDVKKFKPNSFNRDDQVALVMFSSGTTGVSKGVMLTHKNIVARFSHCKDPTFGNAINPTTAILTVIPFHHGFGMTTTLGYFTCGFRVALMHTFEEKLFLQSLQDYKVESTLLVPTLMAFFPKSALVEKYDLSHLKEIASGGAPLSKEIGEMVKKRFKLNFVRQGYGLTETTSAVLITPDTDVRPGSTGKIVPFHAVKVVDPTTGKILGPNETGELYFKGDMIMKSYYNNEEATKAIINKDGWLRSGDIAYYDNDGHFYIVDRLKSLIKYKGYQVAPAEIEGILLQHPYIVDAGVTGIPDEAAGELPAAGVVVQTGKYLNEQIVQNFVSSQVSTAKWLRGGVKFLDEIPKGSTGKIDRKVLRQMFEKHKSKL
Sequence of Glycogen synthase kinase-3 beta (P49841 whole entry): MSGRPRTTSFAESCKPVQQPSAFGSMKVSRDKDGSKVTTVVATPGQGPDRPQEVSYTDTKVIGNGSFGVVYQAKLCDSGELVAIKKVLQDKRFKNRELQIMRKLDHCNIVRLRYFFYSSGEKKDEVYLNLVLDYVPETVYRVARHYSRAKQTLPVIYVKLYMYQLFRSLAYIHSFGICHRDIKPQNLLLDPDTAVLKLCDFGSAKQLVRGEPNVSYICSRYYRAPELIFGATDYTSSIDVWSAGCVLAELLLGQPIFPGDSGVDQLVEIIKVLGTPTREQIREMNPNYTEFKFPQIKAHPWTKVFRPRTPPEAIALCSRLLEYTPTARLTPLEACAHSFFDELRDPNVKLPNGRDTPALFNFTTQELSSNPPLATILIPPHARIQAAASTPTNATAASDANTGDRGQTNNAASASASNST
Sequence of Beta-2 adrenergic receptor (P07550 whole entry): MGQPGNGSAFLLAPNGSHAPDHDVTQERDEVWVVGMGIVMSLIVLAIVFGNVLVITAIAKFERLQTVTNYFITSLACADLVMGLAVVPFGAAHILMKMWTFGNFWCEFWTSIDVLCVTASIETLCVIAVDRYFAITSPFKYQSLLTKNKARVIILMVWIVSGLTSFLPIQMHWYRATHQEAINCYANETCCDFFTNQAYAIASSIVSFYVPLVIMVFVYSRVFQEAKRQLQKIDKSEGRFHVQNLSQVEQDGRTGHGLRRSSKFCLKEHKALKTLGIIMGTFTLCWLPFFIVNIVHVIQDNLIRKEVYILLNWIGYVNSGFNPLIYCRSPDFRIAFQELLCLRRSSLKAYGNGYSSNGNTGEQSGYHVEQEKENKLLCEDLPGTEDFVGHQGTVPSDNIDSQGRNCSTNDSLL
Sequence of DNA topoisomerase (A0A2S9PM60 whole entry): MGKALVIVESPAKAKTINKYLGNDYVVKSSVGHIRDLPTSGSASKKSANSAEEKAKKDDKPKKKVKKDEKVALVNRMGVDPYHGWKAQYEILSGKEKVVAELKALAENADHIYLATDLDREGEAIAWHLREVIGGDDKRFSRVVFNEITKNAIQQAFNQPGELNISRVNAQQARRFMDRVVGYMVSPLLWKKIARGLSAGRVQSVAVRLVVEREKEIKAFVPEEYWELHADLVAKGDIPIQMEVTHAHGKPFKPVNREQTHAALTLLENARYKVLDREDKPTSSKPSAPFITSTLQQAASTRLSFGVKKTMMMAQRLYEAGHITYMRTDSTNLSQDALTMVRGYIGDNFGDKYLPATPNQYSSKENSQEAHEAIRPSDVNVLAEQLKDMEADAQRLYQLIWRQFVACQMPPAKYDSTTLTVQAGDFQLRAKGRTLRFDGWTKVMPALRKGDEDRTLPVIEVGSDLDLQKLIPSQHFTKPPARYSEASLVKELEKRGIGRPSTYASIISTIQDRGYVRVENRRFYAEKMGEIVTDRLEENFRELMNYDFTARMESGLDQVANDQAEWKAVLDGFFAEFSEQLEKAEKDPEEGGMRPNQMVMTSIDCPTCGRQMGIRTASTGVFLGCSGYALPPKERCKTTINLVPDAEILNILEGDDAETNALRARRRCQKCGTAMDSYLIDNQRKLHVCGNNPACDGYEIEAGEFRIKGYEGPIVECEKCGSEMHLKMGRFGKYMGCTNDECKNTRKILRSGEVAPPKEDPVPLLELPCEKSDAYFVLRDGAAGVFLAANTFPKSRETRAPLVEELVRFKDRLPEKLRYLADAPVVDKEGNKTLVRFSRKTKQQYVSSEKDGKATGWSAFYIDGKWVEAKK
Sequence of Beta-galactosidase (Q8VNN2 whole entry): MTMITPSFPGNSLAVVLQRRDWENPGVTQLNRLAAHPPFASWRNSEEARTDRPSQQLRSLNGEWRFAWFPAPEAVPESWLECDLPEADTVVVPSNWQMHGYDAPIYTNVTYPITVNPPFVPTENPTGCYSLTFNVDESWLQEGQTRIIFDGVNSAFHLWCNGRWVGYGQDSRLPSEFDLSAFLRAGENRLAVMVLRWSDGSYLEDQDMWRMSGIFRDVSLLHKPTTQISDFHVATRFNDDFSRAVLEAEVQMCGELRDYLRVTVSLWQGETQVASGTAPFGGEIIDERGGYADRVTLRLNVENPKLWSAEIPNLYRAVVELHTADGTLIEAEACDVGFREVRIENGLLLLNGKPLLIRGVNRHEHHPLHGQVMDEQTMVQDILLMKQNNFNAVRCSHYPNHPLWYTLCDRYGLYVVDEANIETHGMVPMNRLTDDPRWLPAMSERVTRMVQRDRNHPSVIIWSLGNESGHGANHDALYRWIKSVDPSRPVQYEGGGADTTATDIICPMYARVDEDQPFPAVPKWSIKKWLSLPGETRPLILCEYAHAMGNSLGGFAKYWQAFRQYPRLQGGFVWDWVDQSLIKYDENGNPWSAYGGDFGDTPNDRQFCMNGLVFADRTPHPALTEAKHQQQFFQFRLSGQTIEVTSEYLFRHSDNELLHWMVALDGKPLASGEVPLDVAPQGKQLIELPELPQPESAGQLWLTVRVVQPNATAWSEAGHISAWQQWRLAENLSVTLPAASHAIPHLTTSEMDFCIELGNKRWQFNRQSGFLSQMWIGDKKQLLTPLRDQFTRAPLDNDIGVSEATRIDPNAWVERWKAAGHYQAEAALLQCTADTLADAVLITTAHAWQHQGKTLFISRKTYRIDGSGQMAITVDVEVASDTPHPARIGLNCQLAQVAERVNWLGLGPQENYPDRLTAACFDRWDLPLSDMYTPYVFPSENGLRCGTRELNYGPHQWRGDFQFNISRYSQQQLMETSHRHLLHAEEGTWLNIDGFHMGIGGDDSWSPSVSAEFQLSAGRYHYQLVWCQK
Sequence of Glycogen synthase kinase-3 alpha (P49840 whole entry): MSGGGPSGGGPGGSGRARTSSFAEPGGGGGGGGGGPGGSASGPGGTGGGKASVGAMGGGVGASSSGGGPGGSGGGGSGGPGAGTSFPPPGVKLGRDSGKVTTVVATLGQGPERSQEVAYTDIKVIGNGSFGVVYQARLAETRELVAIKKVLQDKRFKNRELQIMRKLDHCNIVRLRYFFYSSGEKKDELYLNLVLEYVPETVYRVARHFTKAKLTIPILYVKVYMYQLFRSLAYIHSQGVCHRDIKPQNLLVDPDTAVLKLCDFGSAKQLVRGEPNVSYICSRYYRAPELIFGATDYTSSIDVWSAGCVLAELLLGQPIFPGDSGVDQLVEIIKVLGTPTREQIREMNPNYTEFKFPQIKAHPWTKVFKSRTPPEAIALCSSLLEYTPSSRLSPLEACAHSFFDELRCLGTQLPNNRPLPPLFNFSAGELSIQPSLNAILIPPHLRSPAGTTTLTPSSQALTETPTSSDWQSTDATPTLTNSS

SMILES: Nc1ncnc2c1nc(Sc1ccc(Cl)cc1)n2[C@@H]1O[C@@H]2COP(=O)(O)O[C@H]2[C@H]1O
- EC50 [1]: 0.0327 µM (active)
- EC50 [2]: 0.0505 µM (active)

SMILES: O=c1c2ccccc2sc2ccc(C#CC3(O)CCCCC3)cc12
- EC50 [3]: < 0.1 µM (active)
- EC50 [4]: < 0.16 µM (active)
- AC50 [5]: 29.8 µM (active)
- AC50 [6]: > 70 µM (inactive)
- AC50 [7]: 0.555 µM (active)
- AC50 [8]: < 0.26 µM (active)
- EC50 [9]: 0.118 µM (active)
- EC50 (cells): 0.083 µM (active)
- EC50 [10]: < 0.1 µM (active)
- EC50 [11]: 0.14 µM (active)
- EC50 [12]: < 0.1 µM (active)

SMILES: NC(=O)c1ccccc1NCC(=O)c1ccc(Cl)cc1
- EC50 (Beta-galactosidase): > 40 µM (inactive)
- AC50 (DNA topoisomerase): 7.76 µM (active)
- IC50 [13]: 7.41 µM (active)

SMILES: Brc1ccccc1C1Nc2cccc3cccc(c23)N1
- EC50 [14]: 9.74 µM (active)
- EC50 (Streptococcus): 14.2 µM (active)
- IC50 (Beta-arrestin-1): 2.94 µM (inactive)
- EC50 (Streptokinase A): > 150 µM (not active)

SMILES: Nc1nc(NCCCN2CCOCC2)nc(Nc2ccc(F)cc2)c1[N+](=O)[O-]
- AC50 [15]: 1.25 µM (active)
- AC50 [16]: 0.406 µM (active)

SMILES: Cc1ccc(-c2cnn3c(N4CCOCC4)cc(C)nc23)cc1
- AC50 [17]: 17.4 µM (active)
- IC50 [18]: > 67.5 µM (inactive)
- AC50 [19]: 23.6 µM (active)
- AC50 [20]: > 52 µM (inactive)
- IC50 (HEK293): > 67.5 µM (inactive)

SMILES: CC(=O)N1c2ccccc2C(C)(c2ccccc2)CC1(C)C (stereo not given)
- EC50 [21]: 9.29 µM (active)

SMILES: NCCNS(=O)(=O)c1cccc2cnccc12
- AC50 [22]: 12.6 µM (inconclusive)

SMILES: CCCCCC(=O)Nc1cccc(C2=NOC3(C2)C[C@@H](C(N)=O)N(C(=O)c2ccc(OC)cc2)C3)c1 (stereo not given in full)
- EC50 [23]: 4.38 µM (active)
